Patent US20200071310A1, “N-ARYL PYRAZOLES AS NRF2 REGULATORS” (GLAXOSMITHKLINE INTELLECTUAL PROPERTY DEVELOPMENT LIMITED, priority 2016, published 2020)
Where a name gives a salt, the structure may show the parent alone.

Molecular target: T1, full length Keap1 protein / full length NRF2 protein (Homo sapiens, UniProt Q14145)
T1 construct: full length NRF2 protein and full length Keap1 protein (Keap1 exists a dimer) are used; His
Assay: NRF2-Keap1 TR-FRET Low Protein Assay
Format: binding
Excerpt: In the NRF2-Keap1 TR-FRET (time-resolved fluorescence resonance energy transfer) low protein assay, full length NRF2 protein and full length Keap1 protein (Keap1 exists a dimer) are used. The assay detects a compound's ability to displace the binding of Keap1 FlagHis with biotinylated Avi-NRF2 protein. Biotin-NRF2 binds to streptavidin-europium (a component of the detection mix) and Keap1 FlagHis is recognized by anti-Flag APC (allophycocyanin) antibody (also a component of the detection mix). If binding occurs between the two proteins, there will be an energy transfer from the Eu+3 (donor) at 615 nm to the APC (acceptor) at 665 nm. A potential NRF2 inhibitor will cause a reduction in the TR-FRET signal by interfering with the binding of Keap1 to NRF2.
Ten nanoliters of 100× compound dose response curves (serial 3-fold dilutions) in DMSO were stamped using an Echo liquid handling system (Labcyte) into 384-well, low volume, black assay plates (Greiner, #784076), with DMSO in columns 6 and 18. An additional 90 nl DMSO was added to each well, to bring the total volume to 100 nl per well. The top concentration of compound was located in columns 1 and 13, with the serial dilutions going across the row. All reagents were diluted in assay buffer (50 mM Tris, pH 8.0, 5 mM MgCl2, 100 mM NaCl, 0.005% BSA, 1 mM DTT, and 2 mM CHAPS. The BSA, DTT, and CHAPS were added to the assay buffer on the day of assay. Using a Multidrop Combi (Thermo Electron Corporation) equipped with a metal tip dispenser, 5 ul of 1.25 nM Keap1 FlagHis protein was added to all wells of the compound plate, with the exception of the wells in column 18. Wells in column 18 received 5 ul of assay buffer instead. Plates were centrifuged at 500 rpm for 1 minute, covered with a plate lid, and incubated at 37° C. for 2.25 hours. Plates were then removed from the incubator and allowed to cool to RT for 15 minutes. Five microliters of 2.5 nM biotin-NRF2 protein was then added to all wells of the plates and the plates were spun at 500 rpm for 1 minute, followed by incubating at 4° C. for 1.25 hours. The plates were then allowed to warm to RT for 15 minutes, followed by the addition of 10 ul of detection mix (1 nM Streptavidin Eu+W1024 and 5 ug/ml mouse anti-DYKDDDDK IgG conjugated to SureLight APC antibody; both from Columbia Biosciences) to all wells. Plates were spun at 500 rpm for 1 minute, incubated for 1 hour at RT, and read on an Envision plate reader using a 320 nm excitation filter and 615 nm and 665 nm emission filters. Compound response (% inhibition) and potency (pIC50) were calculated based on the ratio of the two emissions (665 nm/615 nm) and then the transformed data was normalized against controls in the assay (control 1=1% DMSO in the presence of NRF2 and Keap1 protein and control 2=1% DMSO in the presence of only the NRF2 protein). Data analysis was handled using the software package Abase XE (Surrey, United Kingdom). The % inhibition values were calculated from the ratio (transformed) data by the equation:
100−(100*(compound response−average control 2)/(average control 1−average control2)).
For calculation of pIC50s, Abase XE used a four parameter equation.
IC50s<10 nM (+++++), IC50s 10-100 nM (++++), IC50s 100 nM-1 uM (+++), IC50s 1-10 uM (++). and IC50s 10 uM-100 uM (+), IC50s>100 uM (−), or were not determined (ND).

T1 sequence (Q14145 whole entry): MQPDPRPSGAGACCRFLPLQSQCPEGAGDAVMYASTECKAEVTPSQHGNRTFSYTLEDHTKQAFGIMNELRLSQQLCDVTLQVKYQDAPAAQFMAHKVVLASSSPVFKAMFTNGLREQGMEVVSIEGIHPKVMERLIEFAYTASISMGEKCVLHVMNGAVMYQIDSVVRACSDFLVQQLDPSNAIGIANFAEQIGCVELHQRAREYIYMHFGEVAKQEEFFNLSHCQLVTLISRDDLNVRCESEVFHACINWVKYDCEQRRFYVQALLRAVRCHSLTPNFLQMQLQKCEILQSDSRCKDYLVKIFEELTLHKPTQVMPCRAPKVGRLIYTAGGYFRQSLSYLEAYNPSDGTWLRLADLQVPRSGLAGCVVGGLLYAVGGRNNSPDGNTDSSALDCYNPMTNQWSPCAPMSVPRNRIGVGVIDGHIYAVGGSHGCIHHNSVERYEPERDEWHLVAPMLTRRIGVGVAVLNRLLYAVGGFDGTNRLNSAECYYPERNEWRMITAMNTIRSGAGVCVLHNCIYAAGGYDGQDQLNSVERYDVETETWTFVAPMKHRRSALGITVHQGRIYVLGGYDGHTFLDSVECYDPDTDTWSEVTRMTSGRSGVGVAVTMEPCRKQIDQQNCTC

SMILES | EC50 [nM]
CN(Cc1cccc(-n2ncc(C(=O)O)c2[C@@H]2C[C@H]2c2cn(C)nn2)c1)S(=O)(=O)c1ccccc1 (racemic) [Example 48, 5-((trans)-2-(1-methyl-1H-1,2,3-triazol-4-yl)cyclopropyl)-1-(3-((N-methylphenylsulfonamido)methyl)phenyl)-1H-pyrazole-4-carboxylic acid] | 1000 to 10000
CCCCCCN(Cc1cccc(-n2ncc(C(=O)O)c2[C@@H]2C[C@H]2c2cn(C)nn2)c1)S(=O)(=O)c1ccccc1Oc1ccccc1 (racemic) [Example 49, 1-(3-((N-hexyl-2-phenoxyphenylsulfonamido)methyl)phenyl)-5-((trans)-2-(1-methyl-1H-1,2,3-triazol-4-yl)cyclopropyl)-1H-pyrazole-4-carboxylic acid] | 1000 to 10000
CCCN(Cc1cccc(-n2ncc(C(=O)O)c2[C@@H]2C[C@H]2c2cn(C)nn2)c1)S(=O)(=O)c1ccccc1C (racemic) [Example 50, 5-((trans)-2-(1-methyl-1H-1,2,3-triazol-4-yl)cyclopropyl)-1-(3-((2-methyl-N-propylphenylsulfonamido)methyl)phenyl)-1H-pyrazole-4-carboxylic acid] | 1000 to 10000
CN(Cc1cccc(-n2ncc(C(=O)O)c2[C@@H]2C[C@H]2c2cn(C)nn2)c1)S(=O)(=O)c1cccc2cccnc12 (racemic) [Example 51, 5-((trans)-2-(1-methyl-1H-1,2,3-triazol-4-yl)cyclopropyl)-1-(3-((N-methylquinoline-8-sulfonamido)methyl)phenyl)-1H-pyrazole-4-carboxylic acid] | 1000 to 10000
COc1ccccc1S(=O)(=O)NCc1cccc(-n2ncc(C(=O)O)c2[C@@H]2C[C@H]2c2cn(C)nn2)c1 (racemic) [Example 52, 1-(3-((2-methoxyphenylsulfonamido)methyl)phenyl)-5-((trans)-2-(1-methyl-1H-1,2,3-triazol-4-yl)cyclopropyl)-1H-pyrazole-4-carboxylic acid] | 1000 to 10000
COc1ccccc1S(=O)(=O)N(Cc1cccc(-n2ncc(C(=O)O)c2[C@@H]2C[C@H]2c2cn(C)nn2)c1)C1CC1 (racemic) [Example 53, 1-(3-((N-cyclopropyl-2-methoxyphenylsulfonamido)methyl)phenyl)-5-((trans)-2-(1-methyl-1H-1,2,3-triazol-4-yl)cyclopropyl)-1H-pyrazole-4-carboxylic acid] | 10000 to 100000
CCOc1ccc(Br)cc1CN(C)Cc1cccc(-n2ncc(C(=O)O)c2[C@@H]2C[C@H]2c2cn(C)nn2)c1 (racemic) [Example 54, 1-(3-(((5-bromo-2-ethoxybenzyl)(methyl)amino)methyl)phenyl)-5-((trans)-2-(1-methyl-1H-1,2,3-triazol-4-yl)cyclopropyl)-1H-pyrazole-4-carboxylic acid trifluoroacetate] | 1000 to 10000
CCCCCCN(Cc1cccc(-n2ncc(C(=O)O)c2[C@@H]2C[C@H]2c2cnn(C)c2)c1)S(=O)(=O)c1ccccc1C (racemic) [Example 56] | 10000 to 100000
Cc1cc([C@@H]2C[C@H]2c2c(C(=O)O)cnn2-c2cccc(CN3C[C@@H](C)Cc4cc(C(F)(F)F)ccc4S3(=O)=O)c2)on1 (racemic) [Example 57, 1-(3-(((S)-4-Methyl-1,1-dioxido-7-(trifluoromethyl)-4,5-dihydrobenzo[f][1,2]thiazepin-2(3H)-yl)methyl)phenyl)-5-(trans-2-(3-methylisoxazol-5-yl)cyclopropyl)-1H-pyrazole-4-carboxylic acid] | 1000 to 10000
CCCCCCN(Cc1cccc(-n2ncc(C(=O)O)c2[C@@H]2C[C@H]2c2cn(C)nn2)c1)S(=O)(=O)c1ccc(Oc2ccccc2)cc1 (relative stereo) [Example 36, 1-(3-((N-hexyl-4-phenoxyphenylsulfonamido)methyl)phenyl)-5-((trans)-2-(1-methyl-1H-1,2,3-triazol-4-yl)-cyclopropyl)-1H-pyrazole-4-carboxylic acid] | 100 to 1000
CN(Cc1cccc(-n2ncc(C(=O)O)c2[C@@H]2C[C@H]2c2cn(C)nn2)c1)S(=O)(=O)c1ccccc1Oc1ccccc1 (relative stereo) [Example 38, 5-((trans)-2-(1-methyl-1H-1,2,3-triazol-4-yl)cyclo-propyl)-1-(3-((N-methyl-2-phenoxyphenyl-sulfonamido)-methyl)phenyl)-1H-pyrazole-4-carboxylic acid] | 100 to 1000
CN(Cc1cccc(-n2ncc(C(=O)O)c2[C@@H]2C[C@H]2c2cn(C)nn2)c1)S(=O)(=O)c1ccc(-c2ccccc2)cc1 (relative stereo) [Example 39, 5-((trans)-2-(1-methyl-1H-1,2,3-triazol-4-yl)cyclo-propyl)-1-(3-((N-methyl-[1,1′-biphenyl]-4-ylsulfonamido)-methyl)phenyl)-1H-pyrazole-4-carboxylic acid] | 100 to 1000
CC(c1cccc(-n2ncc(C(=O)O)c2[C@@H]2C[C@H]2c2cn(C)nn2)c1)N1C[C@@H](C)Cc2ccc(C(F)(F)F)cc2S1(=O)=O (single isomer, unassigned) [Example 6, 1-(3-((R or S)-1-((S)-4-Methyl-1,1-dioxido-8-(trifluoromethyl)-4,5-dihydrobenzo[f][1,2]thiazepin-2(3H)-yl)ethyl)phenyl)-5-((1R,2R)-2-(1-methyl-1H-1,2,3-triazol-4-yl)cyclopropyl)-1H-pyrazole-4-carboxylic acid] | 10 to 100
CC[C@@H]1CN(Cc2cccc(-n3ncc(C(=O)O)c3[C@@H]3C[C@H]3c3cn(C)nn3)c2)S(=O)(=O)c2ccccc2O1 [Example 3] | 10 to 100
CC[C@H]1Cc2ccccc2S(=O)(=O)N(Cc2cccc(-n3ncc(C(=O)O)c3[C@@H]3C[C@H]3c3cn(C)nn3)c2)C1 [Example 4] | 10 to 100
CC[C@@H]1Cc2ccccc2CN(Cc2cccc(-n3ncc(C(=O)O)c3[C@@H]3C[C@H]3c3cn(C)nn3)c2)C1 [Example 10] | 100 to 1000
CC[C@H]1Cc2ccccc2CN(Cc2cccc(-n3ncc(C(=O)O)c3[C@@H]3C[C@H]3c3cn(C)nn3)c2)C1 [Example 11] | 100 to 1000
CCC1c2ccccc2OC(C)(C)CN1Cc1cccc(-n2ncc(C(=O)O)c2[C@@H]2C[C@H]2c2cn(C)nn2)c1 (stereo partly drawn) [Example 12] | 10000 to 100000
C[C@H]1Cc2ccccc2S(=O)(=O)N(Cc2cccc(-n3ncc(C(=O)O)c3[C@@H]3C[C@H]3c3cn(C)nn3)c2)C1 [Example 15, 1-(3-(((S)-4-methyl-1,1-dioxido-4,5-dihydrobenzo[f][1,2]thiazepin-2(3H)-yl)methyl)phenyl)-5-((trans)-2-(1-methyl-1H-1,2,3-triazol-4-yl)cyclopropyl)-1H-pyrazole-4-carboxylic acid] | 100 to 1000
CC[C@H]1Cc2ccc(C(F)(F)F)cc2S(=O)(=O)N(Cc2cccc(-n3ncc(C(=O)O)c3[C@@H]3C[C@H]3c3cn(C)nn3)c2)C1 [Example 20, 1-(3-(((S)-4-ethyl-1,1-dioxido-8-(trifluoromethyl)-4,5-dihydrobenzo[f][1,2]thiazepin-2(3H)-yl)methyl)phenyl)-5-((1R,2R)-2-(1-methyl-1H-1,2,3-triazol-4-yl)cyclopropyl)-1H-pyrazole-4-carboxylic acid] | < 10
CCCC[C@H]1Cc2ccc(C(F)(F)F)cc2S(=O)(=O)N(Cc2cccc(-n3ncc(C(=O)O)c3[C@@H]3C[C@H]3c3cn(C)nn3)c2)C1 [Example 21, 1-(3-(((S)-4-butyl-1,1-dioxido-8-(trifluoromethyl)-4,5-dihydrobenzo[f][1,2]thiazepin-2(3H)-yl)methyl)phenyl)-5-((1R,2R)-2-(1-methyl-1H-1,2,3-triazol-4-yl)cyclopropyl)-1H-pyrazole-4-carboxylic acid] | < 10
